Positions count from the first letter of the chain named.
What was measured:
Format in all cases: biochemical
[1] = target: T1, mitochondrial carnitine/acylcarnitine transporter (CACT) (Rattus norvegicus, UniProt P97521); test: [3H]carnitine/carnitine antiport in proteoliposomes
T1 construct: gene Slc25a20; recombinant WT rat CACT expressed in E. coli, reconstituted in liposomes
T1 sequence (P97521 2-301): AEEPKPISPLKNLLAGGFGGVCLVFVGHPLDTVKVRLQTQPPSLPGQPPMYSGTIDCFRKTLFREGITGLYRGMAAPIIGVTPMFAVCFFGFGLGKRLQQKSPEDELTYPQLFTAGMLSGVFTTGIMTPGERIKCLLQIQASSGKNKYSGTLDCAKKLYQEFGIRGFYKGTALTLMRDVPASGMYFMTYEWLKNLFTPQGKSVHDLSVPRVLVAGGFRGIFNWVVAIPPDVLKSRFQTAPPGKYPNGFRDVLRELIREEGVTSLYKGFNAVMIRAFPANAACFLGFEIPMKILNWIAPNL

[2] = target: T2, mitochondrial carnitine/acylcarnitine transporter (CACT), C283A mutant (Rattus norvegicus, UniProt P97521, C283A); test: […] inhibition of antiport after […] omeprazole and removal of unreacted compound
T2 construct: gene Slc25a20; recombinant mutant rat CACT reconstituted in liposomes
T2 sequence (P97521 2-301 C283A): T1 sequence (P97521 2-301) with C282A

[3] = target: T3, mitochondrial carnitine/acylcarnitine transporter (CACT), C136S mutant (Rattus norvegicus, UniProt P97521, C136S); test: as above
T3 construct: gene Slc25a20; recombinant mutant rat CACT reconstituted in liposomes
T3 sequence (P97521 2-301 C136S): T1 sequence (P97521 2-301) with C135S

[4] = target: T1, mitochondrial carnitine/acylcarnitine transporter (CACT); test: [3H]carnitine/carnitine antiport in proteoliposomes; acid-activated omeprazole (non-activated compound inactive)

Molecule COc1ccnc(C[S+]([O-])c2nc3ccc(OC(F)F)cc3[nH]2)c1OC (centres unmarked) [pantoprazole] has an IC50 [1] of 6.4 µM.
Work on COc1ccc2[nH]c([S+]([O-])Cc3ncc(C)c(OC)c3C)nc2c1 (centres unmarked) [omeprazole] yielded an inhibition at 30 µM [2] of 53%, an inhibition at 30 µM [3] of 59% and an IC50 [4] of 5.4 µM.
In the case of Cc1c(OCC(F)(F)F)ccnc1C[S+]([O-])c1nc2ccccc2[nH]1 (centres unmarked) [lansoprazole], the IC50 ([1]; read-out: IC50) is reported as 80 µM.

Reference: PMC3857281, “Molecular Mechanism of Inhibition of the Mitochondrial Carnitine/Acylcarnitine Transporter by Omeprazole Revealed by Proteoliposome Assay, Mutagenesis and Bioinformatics” (PLoS ONE, 2013)
